Common to all, as to assay type: in vivo
Experiment [1] deals with velvetleaf (Abutilon theophrasti). Briefly: Test A greenhouse herbicide test, pre- and postemergence. The following applies: 240 h; for pest or weed control at 1000 g/ha: 1000 g ai/ha; for pest or weed control at 1000 g/ha / pest or weed control at 500 g/ha: 0 to 100 scale; for pest or weed control at 125 g/ha: 125 g ai/ha; for pest or weed control at 500 g/ha: 500 g ai/ha. The method in brief:
(§1)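 Seeds in loam–sand blend received a preemergence directed soil spray; plants at 2–10 cm, one- to two-leaf stage, received postemergence sprays. Compounds in a non-phytotoxic solvent with surfactant. After about 10 d in a greenhouse, injury rated visually versus untreated controls on a 0–100 scale (100 = complete control).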

Experiment [2] deals with crabgrass, large (large crabgrass, Digitaria sanguinalis). The experiment is described as above. The conditions noted are these: 240 h; for pest or weed control at 1000 g/ha: 1000 g ai/ha; for pest or weed control at 1000 g/ha / pest or weed control at 500 g/ha: 0 to 100 scale; for pest or weed control at 125 g/ha: 125 g ai/ha; for pest or weed control at 500 g/ha: 500 g ai/ha. The method in brief:
as §1

Experiment [3] deals with momingglory (Ipomoea spp.). The description is as above. The conditions noted are these: 240 h; for pest or weed control at 1000 g/ha: 1000 g ai/ha; for pest or weed control at 1000 g/ha / pest or weed control at 500 g/ha: 0 to 100 scale; for pest or weed control at 125 g/ha: 125 g ai/ha; for pest or weed control at 500 g/ha: 500 g ai/ha. The method in brief:
as §1

Experiment [4] deals with Canada thistle (Cirsium arvense). Briefly: Test D controlled growth environment herbicide test, pre- and postemergence. The conditions noted are these: for Canada Thistle plant response rating / Plant response rating (scale of 0 to 100), Canada Thistle: 31 g ai/ha. The method in brief:
(§2)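 Species sown in silt loam and sprayed preemergence, or grown in peat-based medium to 2–18 cm (1- to 4-leaf stage) and sprayed postemergence, with compounds in non-phytotoxic solvent plus surfactant. Visual injury scored versus controls after 14–21 d in a controlled environment, 0 (no effect) to 100 (complete control).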

Experiment [5] concerns geranium, cutleaf (cutleaf geranium, Geranium dissectum). Described as above. The method in brief: as §2
The mark [6] stands for this setting: post-emergence, Postemergence, 0 is no effect, 100 is complete control, read-out: Velvetleaf plant response rating.
Setting [7] is: pre-emergence, Preemergence, 0 no effect, 100 complete control, read-out: Plant response rating, Velvetleaf.
[8] abbreviates: post-emergence, Postemergence, 0 is no effect, 100 is complete control, read-out: Crabgrass, Large plant response rating.
[9] abbreviates: pre-emergence, Preemergence, 0 no effect, 100 complete control, read-out: Plant response rating, Crabgrass, Large.
[10] abbreviates: post-emergence, Postemergence, 0 is no effect, 100 is complete control, read-out: Morningglory plant response rating.
Where [11] appears, read: pre-emergence, Preemergence, 0 no effect, 100 complete control, read-out: Plant response rating, Morningglory.
Setting [12] is: Postemergence, scale 0 to 100 (0 no effect, 100 complete control).
[13] abbreviates: Postemergence, 125 g ai/ha, visual rating on scale 0 (no effect) to 100 (complete control), 14 to 21 d.
Setting [14] is: Postemergence, 250 g ai/ha, scale 0 to 100 (0 no effect, 100 complete control).
Where [15] appears, read: Preemergence, 62 g ai/ha, scale 0 to 100 (0 no effect, 100 complete control).
The mark [16] stands for this setting: Preemergence, 125 g ai/ha, scale 0 to 100 (0 no effect, 100 complete control).
[17] abbreviates: Preemergence, 250 g ai/ha, scale 0 to 100 (0 no effect, 100 complete control).
Where [18] appears, read: postemergence, 62 g ai/ha, scale 0 to 100, 0 no effect, 100 complete control.
[19] abbreviates: Postemergence, 31 g ai/ha, scale 0 to 100 (0 no effect, 100 complete control).

Structures are written as SMILES. Like-named read-outs stand apart in the source and are kept apart here.

The text below walks through data of patent publication US10597388B2, “Pyridazinone herbicides” (FMC CORPORATION, priority 2014, dated 2020).

In the case of `Cc1ccc2sc(C)c(-c3c(O)c(C)nn(C)c3=O)c2c1` [Compound 1, 4-(2,5-dimethylbenzo[b]thien-3-yl)-5-hydroxy-2,6-dimethyl-3(2H)-pyridazinone], the pest or weed control at 1000 g/ha amounted to 100% in experiment [1] (setting [6]); 100% in experiment [1] (setting [7]); 90% in experiment [2] (setting [8]); 90% in experiment [2] (setting [9]); 100% in experiment [3] (setting [10]); 90% in experiment [3] (setting [11]).
Turning to `Cc1nn(C)c(=O)c(-c2c(C)oc3c(C)cccc23)c1O` [Compound 9, 4-(2,7-dimethyl-3-benzofuranyl)-5-hydroxy-2,6-dimethyl-3(2H)-pyridazinone], the pest or weed control at 125 g/ha in experiment [1] (post-emergence, Postemergence, visual rating after approx. 10 d, 0 to 100 scale (0 no effect, 100 complete control), read-out: Plant response rating, Velvetleaf) was 0%; in experiment [1] (pre-emergence, Preemergence, 0 to 100 scale where 0 is no effect and 100 is complete control, read-out: Velvetleaf plant response rating), 0%; in experiment [2] (post-emergence, Postemergence, visual rating after approx. 10 d, 0 to 100 scale (0 no effect, 100 complete control), read-out: Plant response rating, Crabgrass, Large) it was 10%; in experiment [2] (pre-emergence, Preemergence, 0 to 100 scale where 0 is no effect and 100 is complete control, read-out: Crabgrass, Large plant response rating) it was 20%; in experiment [3] (post-emergence, Postemergence, visual rating after approx. 10 d, 0 to 100 scale (0 no effect, 100 complete control), read-out: Plant response rating, Morningglory), 40%; in experiment [3] (pre-emergence, Preemergence, 0 to 100 scale where 0 is no effect and 100 is complete control, read-out: Morningglory plant response rating) it was 0%. Also, the pest or weed control at 500 g/ha was found to be 10% in experiment [1] (setting [6]); 0% in experiment [1] (setting [7]); 50% in experiment [2] (setting [8]); 90% in experiment [2] (setting [9]); 80% in experiment [3] (setting [10]); 0% in experiment [3] (setting [11]).
Consider `CC(=O)Oc1c(C)nn(C)c(=O)c1-c1ccc(F)c2ccccc12` [Compound 90], for which, in experiment [4] (setting [12]), the “Canada Thistle plant response rating” value was 98. Also, the “Plant response rating, Canada Thistle” value in experiment [4] (setting [13]) worked out at 100; in experiment [4] (setting [14]), 98; in experiment [4] (setting [15]) it was 95; in experiment [4] (setting [16]), 100; in experiment [4] (setting [17]) it was 100; in experiment [4] (setting [18]), 100. Moreover, in experiment [4] (Preemergence), the “Plant response rating (scale of 0 to 100), Canada Thistle” value is given as 50. Also, the “Geranium, Cutleaf plant response rating” value in experiment [5] (setting [19]) came out at 45. Moreover, the “Plant response rating, Geranium, Cutleaf” value in experiment [5] (setting [13]) was 75; in experiment [5] (setting [14]) it was 95; in experiment [5] (setting [16]), 65; in experiment [5] (setting [17]) it was 90; in experiment [5] (setting [18]), 65. For the same compound, the “Plant response rating (scale of 0 to 100), Geranium, Cutleaf” value in experiment [5] (Preemergence, 31 g ai/ha) amounted to 0; in experiment [5] (Preemergence, 62 g ai/ha), 60.
With `CC(=O)Oc1c(Br)nn(C)c(=O)c1-c1c(C)ccc2ccccc12` [Compound 129], the “Canada Thistle plant response rating” value in experiment [4] (setting [12]) is recorded as 100. For the same compound, the “Plant response rating, Canada Thistle” value in experiment [4] (setting [13]), in experiment [4] (setting [14]), in experiment [4] (setting [15]), in experiment [4] (setting [16]), in experiment [4] (setting [17]) and in experiment [4] (setting [18]) was 100 each time. Besides, the “Plant response rating (scale of 0 to 100), Canada Thistle” value in experiment [4] (Preemergence) is reported as 80. Besides, the “Geranium, Cutleaf plant response rating” value in experiment [5] (setting [19]) is recorded as 60. The “Plant response rating, Geranium, Cutleaf” value in experiment [5] (setting [13]) is reported as 75; in experiment [5] (setting [14]), 75; in experiment [5] (setting [16]), 70; in experiment [5] (setting [17]), 95; in experiment [5] (setting [18]), 70. The “Plant response rating (scale of 0 to 100), Geranium, Cutleaf” value was determined as 0 in experiment [5] (Preemergence, 31 g ai/ha) and 0 in experiment [5] (Preemergence, 62 g ai/ha).
Turning to `CC(=O)Oc1c(C)nn(C)c(=O)c1-c1c(C)cc(C)c2ccccc12` [Compound 153], the “Canada Thistle plant response rating” value in experiment [4] (setting [12]) came out at 98. The “Plant response rating, Canada Thistle” value amounted to 100 in experiment [4] (setting [13]); 100 in experiment [4] (setting [14]); 100 in experiment [4] (setting [15]); 100 in experiment [4] (setting [16]); 100 in experiment [4] (setting [17]); 98 in experiment [4] (setting [18]). Besides, the “Plant response rating (scale of 0 to 100), Canada Thistle” value in experiment [4] (Preemergence) is recorded as 100. Also, the “Geranium, Cutleaf plant response rating” value in experiment [5] (setting [19]) came to 75. Moreover, the “Plant response rating, Geranium, Cutleaf” value in experiment [5] (setting [13]) amounted to 90; in experiment [5] (setting [14]), 98; in experiment [5] (setting [16]), 85; in experiment [5] (setting [17]) it was 90; in experiment [5] (setting [18]), 90. For the same compound, the “Plant response rating (scale of 0 to 100), Geranium, Cutleaf” value in experiment [5] (Preemergence, 31 g ai/ha) is 35; in experiment [5] (Preemergence, 62 g ai/ha) it was 75.
